# In patent publication US20070077283A1, “METHOD OF ENHANCING TRANSMUCOSAL DELIVERY OF THERAPEUTIC COMPOUNDS” (Nastech Pharmaceutical Company Inc., priority 2005, published 2007):
# “And” between values parts separate entries of the source, which are not always exact repeats. Equal values may be shown once.
# How the values were obtained:
# [1] = tested on: human-derived tracheal/bronchial epithelial cells (EpiAirway Tissue Model); assay: TER recovery / TER time course; assay type: cell-based; conditions: for TER Recovery (ohms) 16 Hours / TER Recovery (ohms) 0 Hour: lipid 1000 μM in Buffer I; for TER Recovery (ohms) 16 Hours: 16 hours post-treatment; for TER Recovery (ohms) 0 Hour: zero hour post-treatment
# Protocol: TER recovery was calculated as described in the above paragraph.
# Reversibility is a critical factor in selecting epithelial cell permeabiling enhancers since the barrier function of the epithelial cells serves as the first line of defense against pathogens and the entrance of toxins into the body. The permeation enhancing lipids C16 PAF; C18 PAF; C16 Enantiomeric PAF; POVPC; C16-04: 1 PC and PGPC were incubated with a monolayer of human-derived tracheal/bronchial epithelial cells (EpiAirway™ Model System) and TER […] The lipid glucosyl sphingosine was also tested. Each permeation enhancing lipid (except PGPC) was applied at a concentration of 1000 μM for 15, 30 and 60 minutes. The permeation enhancing lipid PGPC and the lipid glucosyl sphingosine were applied at a concentration of 500 μM for 1, 3, 5, 30 and 60 minutes. TER measurements were taken immediately after each application to determine how quickly each lipid could reduce TER.
# […] […] PBS served as a negative control and Triton-X100™ served as a positive control.
# To asses how quickly the cells recovered after application and removal of the permeation enhancing lipid PGPC and the lipid glucosyl sphingosine, TER measurements were taken at 1, 3, 5, 7, and 9 hours post-treamtnet for each of the prior mentioned timed treatments (i.e., 1, 3, 5, 15, 30 and 60 minutes). TER recovery measures the reversibility of the lipid mediated effect on an epithelia. […] Hyptonic PBS served as a negative control for TER reduction and TER recovery.
# [2] = tested on: human-derived tracheal/bronchial epithelial cells (EpiAirway Tissue Model); assay: Transepithelial electrical resistance (TER) of an epithelial cell monolayer; assay type: cell-based; conditions: for activity at 1000 µM / activity at 500 µM: Homo sapiens, Epithelial cell, 1 h, read-out: Mean % of Original TER Value; for activity at 1000 µM: lower value = greater TER reduction (Table 4); for TER reduction within 15 minutes: 15 minute incubation; for activity at 500 µM: lipid 500 μM (Table 4)
# Method in brief: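 EpiAirway human tracheal/bronchial epithelial tissue inserts, fed daily during recovery; resistance read with EVOM voltohmmeter in Endohm-12 chamber in MatTek medium, blank-insert background (about 5-20 ohms) measured. TER normalised to tissue surface area, expressed as Ohms*cm2 and percent of original TER; lower TER taken as enhanced permeation.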
# in vitro = assay: in vitro
# Method in brief: (§1)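 EpiAirway cultures treated 1 h with each lipid; PBS as negative control. LDH released apically and basolaterally measured colorimetrically at 490 nm after 30 min substrate incubation at room temperature. Cytotoxicity expressed as percent of 1% Triton X-100 lysis control, set to 100%.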
# [3] = tested on: human-derived tracheal/bronchial epithelial cells (EpiAirway Tissue Model); assay: in vitro
# Method in brief: as §1
# [4] = % Cytotoxicity, lipid 1000 μM in Buffer I, apical LDH release
# [5] = % Cytotoxicity, lipid 1000 μM in Buffer II, apical LDH release
# [6] = in the presence of FITC-Dextran FD3 (Table 6)
# [7] = in the presence of FITC-Dextran FD10 (Table 6)
# [8] = in the presence of FITC-Dextran FD40 (Table 6)
# [9] = in the presence of FITC-Dextran FD70 (Table 6)
# [10] = in the presence of FITC-Dextran FD500 (Table 6)
# [11] = after 1, 3, 5, 15 and 30 minute treatments, lipids 500 μM, PN159 25 μM
# [12] = after 60 minute treatment, lipids 500 μM, PN159 25 μM
# [13] = lipid 1000 μM, percent decrease in TER from time zero
SMILES,TER Recovery (ohms) 16 Hours [1] [ohms],TER Recovery (ohms) 0 Hour [1] [ohms],activity at 1000 µM ([2]; lipid 1000 μM) [%],% Original TER ([2]; lipid 1000 μM in Buffer I) [%],% Original TER ([2]; lipid 1000 μM in Buffer II) [%],TER reduction within 15 minutes ([2]; lipid 1000 μM),"cytotoxicity at 1 h, 1000 μM (in vitro; [4]) [%]","cytotoxicity at 1 h, 1000 μM (in vitro; [5]) [%]","% Relative Cytotoxic Effect (LDH) [3, 6] [%]","% Relative Cytotoxic Effect (LDH) [3, 7] [%]","% Relative Cytotoxic Effect (LDH) [3, 8] [%]","% Relative Cytotoxic Effect (LDH) [3, 9] [%]","% Relative Cytotoxic Effect (LDH) [3, 10] [%]",Mean % Relative Cytotoxic Effect (LDH) ([3]; lipid 1000 μM (Table 4)) [%],activity at 500 µM [2] [%],other results
"CCCCCCCCCCCCCCCCOC[C@@H](COP(=O)([O-])OCC[N+](C)(C)C)OC(C)=O [C16 Enantiomeric PAF, 3-O-Hexadecyl-2-Acetoyl-sn-Glycero-1-Phosphocholine]",462,9,1,2,9,levels equivalent to that of the Triton-X100™ control,34,14,34,32,36,31,33,35,–,–
"CCCCCCCCCCCCCCCCOC[C@H](COP(=O)([O-])OCC[N+](C)(C)C)OC(C)=O [C16-02:0 PC(C16 PAF), 1-O-Hexadecyl-2-Acetoyl-sn-Glycero-3-Phosphocholine]",650,9,2,1,8,levels equivalent to that of the Triton-X100™ control,43,13,32,35,31,35,26,32,27,"cytotoxicity at 1 h (in vitro; % Cytotoxicity, lipid / PYY 10 mg/mL): 23%; Mean % Relative Cytotoxic Effect (LDH) ([3]; lipid 500 μM (Table 4)): 20%"
C=CCC(=O)O[C@H](COCCCCCCCCCCCCCCCC)COP(=O)([O-])OCC[N+](C)(C)C [C16-04:1 PC],520,10,-2,2,23,–,–,–,–,–,–,–,–,–,11,"Mean % Relative Cytotoxic Effect (LDH) ([3]; human, 1 h, 500 μM): 18%; Mean % Relative Cytotoxic Effect (LDH) ([3]; human, 1 h, 1000 μM): 27%"
"CCCCCCCCCCCCCCCCCCOC[C@H](COP(=O)([O-])OCC[N+](C)(C)C)OC(C)=O [C18-02:0 PC(C18 PAF), 1-O-Octadecyl-2-Acetoyl-sn-Glycero-3-Phosphocholine]",497,6,1,1,7,levels equivalent to that of the Triton-X100™ control,–,–,–,–,–,–,–,–,44,"cytotoxicity at 1 h, 1000 μM (in vitro; human, % Cytotoxicity): 33%; Mean % Relative Cytotoxic Effect (LDH) ([3]; human, 1 h, 500 μM): 8%; % Cytotoxicity ([3]; human, 1 h, 1000 μM): 17%; Mean % Relative Cytotoxic Effect (LDH) ([3]; human, 1 h, 1000 μM): 20%"
"CCCCCCCCCCCCCCCC(=O)OC[C@H](COP(=O)([O-])OCC[N+](C)(C)C)OC(=O)CCCC(=O)O [PGPC, 1-Palmitoyl-2-Glutaroyl-sn-Glycero-3-Phosphocholine]",–,–,–,–,–,–,–,–,–,–,–,–,–,–,–,"time to full TER recovery (PBS control levels) [1, 11]: fully recovered within one hour; time to full TER recovery (PBS control levels) [1, 12]: did not reach PBS TER control levels until three hours post-treatment; Mean TER Reduction 1 hr. Post-treatment ([2]; lipid 62.5 μM): 21%; Mean TER Reduction 1 hr. Post-treatment ([2]; lipid 125 μM): 28%; Mean TER Reduction 1 hr. Post-treatment ([2]; lipid 250 μM): 48%; Mean TER Reduction 1 hr. Post-treatment ([2]; lipid 500 μM): 80%; Mean TER Reduction 1 hr. Post-treatment [2, 13]: 92%; cytotoxicity at 1 h, 500 μM (in vitro; human, % Cytotoxicity): 2%; LDH levels ([3]; human, 1 h): below 30%; Cytotoxic Effect (LDH) 1 hr. Post-treatments ([3]; human, 1 h, 62.5 μM): 2%; Cytotoxic Effect (LDH) 1 hr. Post-treatments ([3]; human, 1 h, 125 μM): 2%; Cytotoxic Effect (LDH) 1 hr. Post-treatments ([3]; human, 1 h, 250 μM): 4%; Cytotoxic Effect (LDH) 1 hr. Post-treatments ([3]; human, 1 h, 500 μM): 13%; Cytotoxic Effect (LDH) 1 hr. Post-treatments ([3]; human, 1 h, 1000 μM): 21%"
"CC(C)C[C@H](NC(=O)[C@H](C)NC(=O)[C@H](CCCCN)NC(=O)[C@H](CC(C)C)NC(=O)[C@H](C)NC(=O)[C@H](CC(C)C)NC(=O)[C@H](CCCCN)NC(=O)[C@H](CC(C)C)NC(=O)[C@H](C)NC(=O)[C@H](CC(C)C)NC(=O)[C@@H](N)CCCCN)C(=O)N[C@@H](CCCCN)C(=O)N[C@@H](C)C(=O)N[C@@H](C)C(=O)N[C@@H](CC(C)C)C(=O)N[C@@H](CCCCN)C(=O)N[C@@H](CC(C)C)C(=O)N[C@@H](C)C(N)=O [PN159, reference compound]",–,–,–,–,–,–,–,–,–,–,–,–,–,–,–,"time to full TER recovery (PBS control levels) [1, 11]: 2 h; time to full TER recovery (PBS control levels) [1, 12]: 9 h; time to TER reduction ([1]; lipids 500 μM, PN159 25 μM): 10 min; % Original TER ([2]; PN159 25 μM / PYY 13.67 mg/mL (High)): 10%; % of the original TER value ([2]; controls of the further test of lipids at 250 μM to 1000 μM (b219-b220)): 8%; Mean TER Reduction 1 hr. Post-treatment ([2]; positive control PN159 25 μM): 85% and 87%; cytotoxicity at 1 hour, 25 μM (in vitro): 33%"
"CCCCCCCCCCCCCCCC(=O)OC[C@H](COP(=O)([O-])OCC[N+](C)(C)C)OC(=O)CCCC=O [POVPC, 1-Palmitoyl-2-(5′-oxo-Valeroyl)-sn-Glycero-3-Phosphocholine]",508,71,0,25,17,–,15,15,19,11,13,13,12,9,–,"TER reduction by 60 minutes ([2]; 1000 μM, 60 minutes): levels nearly equivalent to that of the Triton-X100™ control; TER reduced to % below that of the PBS control ([2]; 1000 μM, within 15 minutes): 20%; TER reduced to % of the PBS control ([2]; 1000 μM, within 30 minutes): about 25%; Mean TER Reduction 1 hr. Post-treatment ([2]; lipid 62.5 μM): 23%; Mean TER Reduction 1 hr. Post-treatment ([2]; lipid 125 μM): 32%; Mean TER Reduction 1 hr. Post-treatment ([2]; lipid 250 μM): 52%; Mean TER Reduction 1 hr. Post-treatment ([2]; lipid 500 μM): 87%; Mean TER Reduction 1 hr. Post-treatment [2, 13]: 93%; Cytotoxic Effect (LDH) 1 hr. Post-treatments ([3]; lipid 62.5 μM, percent of Triton-X100 LDH levels): 2%; Cytotoxic Effect (LDH) 1 hr. Post-treatments ([3]; lipid 125 μM, percent of Triton-X100 LDH levels): 2%; Cytotoxic Effect (LDH) 1 hr. Post-treatments ([3]; lipid 250 μM, percent of Triton-X100 LDH levels): 5%; Cytotoxic Effect (LDH) 1 hr. Post-treatments ([3]; lipid 500 μM, percent of Triton-X100 LDH levels): 11%; LDH levels for each incubation time period ([3]; lipid 1000 μM, 15, 30 and 60 minute incubation): below 10%; Cytotoxic Effect (LDH) 1 hr. Post-treatments ([3]; lipid 1000 μM, percent of Triton-X100 LDH levels): 21%"
